Assay results taken from BindingDB's records for patent US20230271939 (Ip2Ipo Innovations, 2023).

What was measured:
[1] = biological target: T1, eIF-2-alpha kinase GCN2 (Homo sapiens, UniProt Q9P2K8); assay: GCN2 Enzyme Inhibition (ATP 300 uM)
Method: (§1) The inhibitory activity of the Example compounds towards GCN2 enzyme was measured according to the description below, using a LanthaScreen TR-FRET (Time Resolved Fluorescence Resonance Energy Transfer) Kinase Activity assay distributed by ThermoFisher Scientific. The full-length human GCN2 enzyme (UniProt accession number Q9P2K8) was used for all experiments (Carna Bioscience). The TR-FRET pair was composed of GFP-eIF2α and LanthaScreen Terbium-labeled anti-peIF2α (pSer52) Antibody. […] Full inhibition (3000 nM commercial reference inhibitor) and DMSO vehicle control wells were also included on the same plate. All volumes were normalized to the final DMSO concentration of 2% of the reaction volume. Next, 5 μL of H2O was added to each well of the plate.

[2] = biological target: T1, eIF-2-alpha kinase GCN2; assay: GCN2 Enzyme Inhibition (ATP 10 uM)
Method: as §1

T1 sequence (Q9P2K8 whole entry): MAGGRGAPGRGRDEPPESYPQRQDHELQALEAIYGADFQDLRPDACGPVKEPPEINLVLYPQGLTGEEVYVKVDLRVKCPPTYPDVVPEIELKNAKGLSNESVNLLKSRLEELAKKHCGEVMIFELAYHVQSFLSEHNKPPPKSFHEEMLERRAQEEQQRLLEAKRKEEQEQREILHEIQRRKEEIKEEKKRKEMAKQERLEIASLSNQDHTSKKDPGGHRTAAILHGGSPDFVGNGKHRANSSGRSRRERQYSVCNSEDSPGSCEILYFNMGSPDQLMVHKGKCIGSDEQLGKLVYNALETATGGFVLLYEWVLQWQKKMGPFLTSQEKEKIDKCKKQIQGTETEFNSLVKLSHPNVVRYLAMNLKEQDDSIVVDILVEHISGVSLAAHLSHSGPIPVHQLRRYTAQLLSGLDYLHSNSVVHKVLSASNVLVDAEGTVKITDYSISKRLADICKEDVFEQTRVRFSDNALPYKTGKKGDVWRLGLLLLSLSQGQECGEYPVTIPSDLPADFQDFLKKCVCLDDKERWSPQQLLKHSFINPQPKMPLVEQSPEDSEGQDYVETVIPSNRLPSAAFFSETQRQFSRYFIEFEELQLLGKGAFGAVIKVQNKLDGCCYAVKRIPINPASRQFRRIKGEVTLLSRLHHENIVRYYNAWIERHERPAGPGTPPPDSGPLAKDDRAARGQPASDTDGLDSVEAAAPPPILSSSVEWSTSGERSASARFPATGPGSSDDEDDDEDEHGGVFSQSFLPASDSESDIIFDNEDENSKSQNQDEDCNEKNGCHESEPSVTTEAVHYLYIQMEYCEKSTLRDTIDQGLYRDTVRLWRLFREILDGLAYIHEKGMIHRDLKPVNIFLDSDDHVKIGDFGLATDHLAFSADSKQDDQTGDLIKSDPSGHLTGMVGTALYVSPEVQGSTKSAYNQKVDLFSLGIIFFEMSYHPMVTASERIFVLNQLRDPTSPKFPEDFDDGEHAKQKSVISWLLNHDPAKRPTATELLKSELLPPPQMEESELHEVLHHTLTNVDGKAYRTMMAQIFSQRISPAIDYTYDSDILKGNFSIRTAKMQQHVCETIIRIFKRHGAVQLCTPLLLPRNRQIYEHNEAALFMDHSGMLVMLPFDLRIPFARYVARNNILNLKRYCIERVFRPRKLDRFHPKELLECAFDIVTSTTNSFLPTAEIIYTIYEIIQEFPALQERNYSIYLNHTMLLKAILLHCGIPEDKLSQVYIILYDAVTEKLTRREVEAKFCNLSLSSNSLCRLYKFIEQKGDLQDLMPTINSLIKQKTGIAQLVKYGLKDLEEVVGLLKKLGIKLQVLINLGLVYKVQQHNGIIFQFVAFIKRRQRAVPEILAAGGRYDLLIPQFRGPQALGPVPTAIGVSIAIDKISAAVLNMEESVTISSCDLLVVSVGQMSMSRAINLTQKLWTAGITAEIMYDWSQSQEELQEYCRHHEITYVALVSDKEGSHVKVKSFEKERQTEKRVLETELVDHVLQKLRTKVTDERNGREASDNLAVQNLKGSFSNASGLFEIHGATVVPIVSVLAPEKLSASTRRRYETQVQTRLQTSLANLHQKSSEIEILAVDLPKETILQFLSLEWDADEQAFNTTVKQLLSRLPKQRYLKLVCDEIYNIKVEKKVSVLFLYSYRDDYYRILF

**Q.** What does the source list for `COc1ncc(Cl)cc1S(=O)(=O)Nc1ncc(F)c(C#Cc2cnc(N)nc2)c1F` [US20230271939, Example 10]?
**A.** IC50 [1]: 57.3 nM; Ki [1]: 0.9 nM; IC50 [2]: 19.1 nM; Ki [2]: 6.1 nM
